Results published in patent publication US20250074867A1, “NOVEL CATIONIC LIPID COMPOUNDS” (Guangzhou Anobri Pharmaceutical Co. Ltd., priority 2021, published 2025).

Columns and labels:
[1] = system: luciferase expression in the liver; assay: In vivo luciferase mRNA expression in liver after tail vein injection of FLuc mRNA lipid nanoparticles; parameters: species or system mice; conditions: liver 5 hours after administration, FLuc mRNA LNP 50% cationic lipid/10% DSPC/40% cholesterol/1.5% PEG-DMG; for Liver Luc @ 0.3 mg/kg dose: 0.3 mg mRNA/kg; for Liver Luc @ 1.0 mg/kg dose: 1.0 mg mRNA/kg
Experimental: […] Lipid nanoparticles (LNPs) were prepared in a total lipid to mRNA weight ratio of about 10:1 to 30:1. mRNA was diluted to 0.15 mg/ml in 10 to 50 ml citrate buffer (pH=4). Using a syringe pump, an ethanolic solution of lipids was mixed with an aqueous mRNA solution in a ratio of approximately 1:5 to 1:3 (volume/volume) at a total flow rate of more than 15 ml/min. Then ethanol was removed and the external buffer replaced by dialysis with PBS. Finally, the lipid nanoparticles were filtered through a 0.2 um pore size sterile filter. The particle size of lipid nanoparticles as determined by quasi-elastic light scattering using Malvern Zetasizer Nano ZS was approximately 65-105 nm in diameter and, in some cases, approximately 75-100 nm in diameter.
The in vivo study was conducted on female mice aged 6-8 weeks and mice aged 8-10 weeks according to guidelines developed by the National Council for Science and Technology. Different doses of mRNA lipid nanoparticles were administered systemically via tail vein injection and the animals euthanized at specific time points (e.g., 5 hours) after dosing. The liver and spleen were collected in pre-weighed tubes, their weights determined, frozen immediately in liquid nitrogen, and stored at −80° C. until use for analysis.
For the liver, approximately 50 mg of liver tissue was cut for analysis and placed in 2 mL FastPrep tubes (MP Biomedicals, Solon OH). ¼″ ceramic beads (MP Biomedicals) and 500 μL of Glo Lysis Buffer-GLB (Promega, Madison WI) were added to each tube and the contents equilibrated to room temperature. The liver tissue was then homogenized for 15 seconds at 2×6.0 m/s using a FastPrep24 instrument (MP Biomedicals). The homogenates were incubated for 5 minutes at room temperature followed by a ¼ dilutions in GLB and evaluated using the SteadyGlo luciferase assay system (Promega). Specifically, 50 μL of diluted tissue homogenate was reacted with 50 μL of SteadyGlo substrate, shaken for 10 seconds, followed by incubation for 5 minutes and quantified using a CentroXS3LB 960 photometer (Berthold Technologies, Germany). The amount of protein was determined using a BCA Protein Assay Kit (Pierce, Rockford IL). Relative luminescence units (RLU) were then normalized to the total ug of the measured protein. To convert RLU into ng luciferase, a standard curve was generated with QuantiLum recombinant luciferase (Promega).
FLuc mRNA (L-6107) from Trilink Biotechnologies will express luciferase protein, and was originally isolated from fireflies (Photinus pyralis). Fluc is commonly used in mammalian cell cultures to measure gene expression and cell viability. It emits biologic light in the presence of the substrate luciferin. This capped and polyadenylated mRNA was completely replaced by 5-methylcytidine and pseudouridine. […]

[2] = Determination of the pKa of cationic lipids in lipid nanoparticles by TNS fluorescence analysis
Experimental: The pKa of each cationic lipid was determined in lipid nanoparticles using fluorescence analysis based on 2-(p-toluidine)-6-naphthalenesulfonic acid (TNS). As described in Example 3, lipid nanoparticles containing cationic lipids/DSPC/cholesterol/PEG lipids (50/10/40/1.5 mol %) at a concentration of 0.4 mM total lipid in PBS were prepared using an ordered method. 100 μM stock solution was prepared with TNS in distilled water. The vesicles were diluted to contain 24 μM lipid in 2 mL of a buffer solution containing 10 mM HEPES, 10 mM MES, 10 mM acetic acid, 130 mM NaCl, and having a pH of 2.5 to 11. The equal TNS solution was added to produce a final concentration of 1 uM, and after vortex mixing, fluorescence intensity was measured in a SLM Aminco Series 2 luminescence spectrophotometer at room temperature using excitation and emission wavelengths of 321 nm and 445 nm. Fluorescence data were analyzed using a sigmoidal best fit and pKa was measured as the pH producing half-maximal fluorescence intensity.

Compound	Liver Luc @ 0.3 mg/kg dose [1] [ng luciferase/g liver]	Liver Luc @ 1.0 mg/kg dose [1] [ng luciferase/g liver]	pKa [2]
2-heptylnonyl 8-((2-hydroxyethyl) (6-oxo-6-(undecyloxy)hexyl)amino)octanoate [Compound B]	134 ± 40	522 ± 210	
CCCCCCCCCCCOC(=O)CCCCCN(CCO)CCCCCCCC(=O)OCC(CCCCCCCC)CCCCCCCC [Compound A, 2-octyldecyl 8-((2-hydroxyethyl) (6-oxo-6-(undecyloxy)hexyl)amino)octanoate]	156 ± 50	550 ± 200	6.01
